Test results taken from US6281342A, “Pradimicin compounds” (Bristol-Myers Squibb Company, priority 1994, dated 2001).
In brackets after ≈: the same amount, converted by molar mass. Like-named read-outs stand apart in the source and are kept apart here.

Legend:
[1] = tested on: Candida tropicalis IFO 10241; test: MIC, two-fold agar dilution, C. tropicalis IFO 10241; format: cell-based; settings: IFO10241, YMA pH 7.0, 28° C., 40 hours
Protocol: (§1) Minimum inhibitory concentrations (MICs) of nine 4'-N-substituted pradimicin derivatives were determined by two-fold agar dilution method on phosphate-buffered yeast morphology agar (YMA, pH 7.0, Difco Laboratories). A 5-μl of fungal cell suspension containing 2×10^6 cells/ml (2×10^7 cells/ml for Trichophyton mentagrophytes) were spotted on the surface of the agar plates containing test compound. MICs were recorded after 40-hour incubation at 28° C. except for T. mentagrophytes, which required 60-hour incubation to produce visually evaluable growth on the drug-free control plates and were defined as the lowest antibiotic concentrations showing no growth or less than five discrete colonies per spot.
(§2) Medium: yeast morphology agar + 1/15 M phosphate buffer (pH 7.0)
(§3) Incubation conditions: 28° C., 40 hours (C. albicans ATCC 38247 & T.
(§4) Medium: Yeast morphology agar + 1/15 phosphate buffer (pH 7.0).

[2] = tested on: Candida albicans A9540; test: animal or person; format: in vivo, male ICR mice infected with Candida albicans A9540; settings: for responders at 6.3 mg/kg: 6.3 mg/kg iv
Protocol: (§5) The in vivo therapeutic efficacies of seven 4'-N-substituted pradimicin derivatives, KHM-1, KHM-2, KHM-3, KHM-4, KHM-5, KHM-6 and KHM-7 were evaluated in the mouse infected with Candida albicans A9540 and Aspergillus fumigatusIAM 2034. Groups of five specific-pathogen-free male ICR mice weighing 20-25 g at each dose level were intravenously infected with approximately 10 times the 50% lethal dose of C. albicans A9540 (1×10^6 cells/mouse) or A. fumigatus IAM 2034 (1×10^7 cells/mouse). Immediately after the fungal infection, test compounds dissolved with 10% DMSO in distilled water were intravenously given to the mouse at the dosed volume of 0.1 ml/10 g of body weight. […] Untreated control animals died 7 to 13 days post-infection.

[3] = tested on: Candida albicans A9540; test: MIC, two-fold agar dilution, C. albicans A9540; format: cell-based
Protocol: as §1, §2, §3, §4

[4] = tested on: Candida albicans ATCC 38247; test: MIC, two-fold agar dilution, C. albicans ATCC 38247; format: cell-based; settings: ATCC38247, YMA pH 7.0, 28° C., 60 hours (table footnote)
Protocol: as §1, §2, §3
(§6) mentagrophytes #4329: 28° C., 60 hours).
as §4

[5] = tested on: Candida albicans IAM 4888; test: MIC, two-fold agar dilution, C. albicans IAM 4888; format: cell-based; settings: IAM4888, YMA pH 7.0, 28° C., 40 hours
Protocol: as §1, §2, §3, §4

[6] = tested on: Trichophyton mentagrophytes #4329; test: MIC, two-fold agar dilution, T. mentagrophytes #4329; format: cell-based
Protocol: as §1, §2, §3, §6, §4

[7] = tested on: Aspergillus fumigatus IAM 2034; test: MIC, two-fold agar dilution, A. fumigatus IAM 2034; format: cell-based; settings: IAM2034
Protocol: as §1, §2, §3, §4

[8] = tested on: Cryptococcus neoformans IAM 4514; test: MIC, two-fold agar dilution, C. neoformans IAM 4514; format: cell-based; settings: IAM4514
Protocol: as §1, §2, §3, §4

[9] = tested on: Aspergillus fumigatus IAM 2034; test: Therapeutic efficacy in Aspergillus fumigatus systemic infection in mice; format: in vivo, male ICR mice infected with Aspergillus fumigatus IAM 2034; settings: IAM2034, 480 h; for responders at 12.5 mg/kg: 12.5 mg/kg iv; for responders at 25 mg/kg: 25 mg/kg iv; for responders at 50 mg/kg: 50 mg/kg iv
Protocol: as §5

[10] = tested on: Candida tropicalis 85-8; test: MIC, two-fold agar dilution, C. tropicalis 85-8; format: cell-based; settings: 858, YMA pH 7.0, 28° C., 40 hours
Protocol: as §1, §2, §3, §4

[11] = tested on: Candida albicans ATCC 32354; test: MIC, two-fold agar dilution, C. albicans ATCC 32354; format: cell-based; settings: ATCC32354, YMA pH 7.0, 28° C., 40 hours
Protocol: as §1, §2, §3, §4

[12] = tested on: Candida albicans 83-2-14; test: MIC, two-fold agar dilution, C. albicans 83-2-14; format: cell-based; settings: 83214, YMA pH 7.0, 28° C., 40 hours
Protocol: as §1, §2, §3, §4

[13] = tested on: Saccharomyces cerevisiae ATCC 9763; test: MIC, two-fold agar dilution, S. cerevisiae ATCC 9763; format: cell-based; settings: ATCC9763, YMA pH 7.0, 28° C., 40 hours
Protocol: as §1, §2, §3, §4

[14] = tested on: Cryptococcus neoformans D49; test: MIC, two-fold agar dilution, C. neoformans D49; format: cell-based; settings: YMA pH 7.0, 28° C., 40 hours
Protocol: as §1, §2, §3, §4

[15] = Water solubility at neutral pH in PBS containing Ca^2+/Mg^2+; format: physicochemical; settings: pbs with ca2+/mg2+; Table 3; water-solubility at neutral pH in phosphate buffered saline containing Ca^2+/Mg^2+
Protocol: The compounds of the invention have good water solubility. Typically, the water solubility is greater than 10 mg/ml when measured at neutral pH in PBS containing Ca^2+ /Mg^2+, preferably greater than 20 mg/ml.
^2) Water-solubility at neutral pH in phosphate buffered saline
containing Ca^2+ /Mg^2+.

[16] = 480 h, Table 3, Candida albicans A9540, iv, read-out: PD50 (mice) Ca-4
[17] = Candida albicans, A9540, 480 h, C. albicans, mice, 12.5 mg/kg iv, 20th day post-infection, read-out: S/T (No. of survivors/tested) (converted)
[18] = Candida albicans, A9540, 480 h, C. albicans, mice, 25 mg/kg iv, 20th day post-infection, read-out: S/T (No. of survivors/tested) (converted)
[19] = Candida albicans, A9540, 480 h, C. albicans, mice, 50 mg/kg iv, 20th day post-infection, read-out: S/T (No. of survivors/tested) (converted)
[20] = Candida albicans, A9540, 480 h, Table 2, C. albicans, mice, iv, 95% confidence limits in parentheses, read-out: PD50 (50% protection dose)
[21] = Candida albicans A9540, YMA pH 7.0, 28° C., 40 hours, read-out: MIC
[22] = Table 3, Candida albicans A9540, YMA, read-out: MIC Ca-4
[23] = Table 3, Trichophyton mentagrophytes #4329, YMA, read-out: MIC TM-4
[24] = Trichophyton mentagrophytes #4329, YMA pH 7.0, 28° C., 60 hours, read-out: MIC
[25] = Aspergillus fumigatus IAM 2034, YMA pH 7.0, 28° C., 40 hours, read-out: MIC
[26] = Table 3, Aspergillus fumigatus IAM 2034, YMA, read-out: MIC Af-3
[27] = Cryptococcus neoformans IAM 4514, YMA pH 7.0, 28° C., 40 hours, read-out: MIC
[28] = Table 3, Cryptococcus neoformans IAM 4514, YMA, read-out: MIC Cn-2
[29] = Aspergillus fumigatus, A. fumigatus, mice, 20th day post-infection, read-out: S/T (No. of survivors/tested) (converted)
[30] = Aspergillus fumigatus, Table 2, A. fumigatus, mice, iv, 95% confidence limits in parentheses, read-out: PD50 (50% protection dose)
[31] = Table 3, Aspergillus fumigatus IAM 2034, iv, read-out: PD50 (mice) Af-3
[32] = Candida albicans, A9540, in Mus musculus, iv, 480 h, read-out: S/T (No. of survivors/tested)
[33] = Candida albicans, A9540, 480 h, C. albicans, mice, 20th day post-infection, read-out: S/T (No. of survivors/tested) (converted)

SMILES | MIC [1] | ED50 [2, 16] | responders at 12.5 mg/kg [2, 17] | responders at 25 mg/kg [2, 18] | responders at 50 mg/kg [2, 19] | ED50 [2, 20] | MIC [3, 21] | MIC [3, 22] | MIC [4] | MIC [6, 23] | MIC [6, 24] | MIC [7, 25] | MIC [7, 26] | MIC [8, 27] | MIC [8, 28] | MIC [10] | MIC [11] | MIC [12] | MIC [13] | MIC [14] | also measured
COc1cc(O)c2c(c1)C(=O)c1c(cc3c(c1O)-c1c(cc(C)c(C(=O)N[C@H](CO)C(=O)O)c1O)[C@H](O[C@@H]1O[C@H](C)[C@H](N(C)C#N)[C@H](O[C@@H]4OC[C@@H](O)[C@H](O)[C@H]4O)[C@H]1O)[C@H]3O)C2=O [KHM-3, 4'-Cyanooradimicin FA-1] | 12.5 µg/mL (≈ 14.2 µM) | > 50 mg/kg | 0% | 0% | 40% | > 50 mg/kg | 6.3 µg/mL (≈ 7.14 µM) | 6.3 µg/mL (≈ 7.14 µM) | 3.1 µg/mL (≈ 3.52 µM) | 50 µg/mL (≈ 56.7 µM) | 50 µg/mL (≈ 56.7 µM) | 25 µg/mL (≈ 28.4 µM) | 25 µg/mL (≈ 28.4 µM) | 6.3 µg/mL (≈ 7.14 µM) | 6.3 µg/mL (≈ 7.14 µM) | 12.5 µg/mL (≈ 14.2 µM) | 6.3 µg/mL (≈ 7.14 µM) | 6.3 µg/mL (≈ 7.14 µM) | 1.6 µg/mL (≈ 1.81 µM) | 6.3 µg/mL (≈ 7.14 µM) | MIC [5]: 6.3 µg/mL (≈ 7.14 µM); responders at 12.5 mg/kg [9, 29]: 0%; responders at 25 mg/kg [9, 29]: 0%; responders at 50 mg/kg [9, 29]: 0%; ED50 [9, 30]: > 50 mg/kg; ED50 [9, 31]: > 50 mg/kg
COc1cc(O)c2c(c1)C(=O)c1c(cc3c(c1O)-c1c(cc(C)c(C(=O)N[C@H](CO)C(=O)O)c1O)[C@H](O[C@@H]1O[C@H](C)[C@H](N(C)N=O)[C@H](O[C@@H]4OC[C@@H](O)[C@H](O)[C@H]4O)[C@H]1O)[C@H]3O)C2=O [KHM-5, 4'-N-Nitrosopradimicin FA-1] | 12.5 µg/mL (≈ 14.1 µM) | > 50 mg/kg | – | – | – | > 50 mg/kg | 6.3 µg/mL (≈ 7.11 µM) | 6.3 µg/mL (≈ 7.11 µM) | 3.1 µg/mL (≈ 3.5 µM) | 6.3 µg/mL (≈ 7.11 µM) | 6.3 µg/mL (≈ 7.11 µM) | 3.1 µg/mL (≈ 3.5 µM) | 3.1 µg/mL (≈ 3.5 µM) | 3.1 µg/mL (≈ 3.5 µM) | 3.1 µg/mL (≈ 3.5 µM) | 12.5 µg/mL (≈ 14.1 µM) | 6.3 µg/mL (≈ 7.11 µM) | 6.3 µg/mL (≈ 7.11 µM) | 3.1 µg/mL (≈ 3.5 µM) | 3.1 µg/mL (≈ 3.5 µM) | responders at 12.5 mg/kg [2, 32]: 20%; responders at 25 mg/kg [2, 32]: 0%; responders at 50 mg/kg [2, 32]: 40%; MIC [5]: 6.3 µg/mL (≈ 7.11 µM); responders at 12.5 mg/kg [9, 29]: 0%; responders at 25 mg/kg [9, 29]: 0%; responders at 50 mg/kg [9, 29]: 40%; ED50 [9, 30]: > 50 mg/kg; ED50 [9, 31]: > 50 mg/kg
CN[C@@H]1[C@H](O[C@@H]2OC[C@@H](O)[C@H](O)[C@H]2O)[C@@H](O)[C@H](O[C@H]2c3cc(C)c(C(=O)N[C@H](CO)C(=O)O)c(O)c3-c3c(cc4c(c3O)C(=O)c3cc(OC)cc(O)c3C4=O)[C@@H]2O)O[C@@H]1C [Pradimicin FA-1, reference compound] | 6.3 µg/mL (≈ 7.35 µM) | – | 20% | 80% | 100% | 18 mg/kg | 6.3 µg/mL (≈ 7.35 µM) | 6.3 µg/mL (≈ 7.35 µM) | 1.6 µg/mL (≈ 1.87 µM) | 1.6 µg/mL (≈ 1.87 µM) | 1.6 µg/mL (≈ 1.87 µM) | 1.6 µg/mL (≈ 1.87 µM) | 1.6 µg/mL (≈ 1.87 µM) | 0.8 µg/mL (≈ 0.934 µM) | 0.8 µg/mL (≈ 0.934 µM) | 6.3 µg/mL (≈ 7.35 µM) | 3.1 µg/mL (≈ 3.62 µM) | 6.3 µg/mL (≈ 7.35 µM) | 1.6 µg/mL (≈ 1.87 µM) | 1.6 µg/mL (≈ 1.87 µM) | responders at 6.3 mg/kg [2, 33]: 0%; responders at 6.3 mg/kg ([9]; Aspergillus fumigatus, A. fumigatus, mice, 6.3 mg/kg iv, 20th day post-infection, read-out: S/T (No. of survivors/tested) (converted)): 0%; responders at 12.5 mg/kg [9, 29]: 20%; responders at 25 mg/kg [9, 29]: 40%; responders at 50 mg/kg [9, 29]: 80%; ED50 [9, 30]: 27 mg/kg; solubility [15]: 260 µg/mL (≈ 303 µM)
COc1cc(O)c2c(c1)C(=O)c1c(cc3c(c1O)-c1c(cc(C)c(C(=O)N[C@H](CO)C(=O)O)c1O)[C@H](O[C@@H]1O[C@H](C)[C@H](N)[C@H](O[C@@H]4OC[C@@H](O)[C@H](O)[C@H]4O)[C@H]1O)[C@H]3O)C2=O [Pradimicin FA-2, reference compound] | 6.3 µg/mL (≈ 7.48 µM) | 7.4 mg/kg | 80% | 100% | 100% | 7.7 mg/kg | 6.3 µg/mL (≈ 7.48 µM) | 6.3 µg/mL (≈ 7.48 µM) | 1.6 µg/mL (≈ 1.9 µM) | 3.1 µg/mL (≈ 3.68 µM) | 3.1 µg/mL (≈ 3.68 µM) | 1.6 µg/mL (≈ 1.9 µM) | 1.6 µg/mL (≈ 1.9 µM) | 1.6 µg/mL (≈ 1.9 µM) | 1.6 µg/mL (≈ 1.9 µM) | 6.3 µg/mL (≈ 7.48 µM) | 3.1 µg/mL (≈ 3.68 µM) | 6.3 µg/mL (≈ 7.48 µM) | 1.6 µg/mL (≈ 1.9 µM) | 1.6 µg/mL (≈ 1.9 µM) | responders at 6.3 mg/kg [2, 33]: 40%; solubility [15]: 20 µg/mL (≈ 23.7 µM)
